Tests used:
human normal fibroblast = assay: Test of inhibition of collagen gel shrinking (human normal fibroblast); type: cell-based; conditions: for Shrinking rate of collagen: after 24 hours
Description: (§1) Test of Inhibition of Collagen Gel Shrinking. A collagen solution (1.5 mg/mL) (1 mL) and a suspension of human normal fibroblast or human fibroblast derived from keloid (1×10^5 cells) (1 mL) were added to a Petri dish (diameter; 35 mm) and mixed. The mixture was warmed for about 10 minutes in an incubator (37° C., 5% CO2) to prepare collagen gel. Further broth (1 mL) was added over thereon and was left for about 3 hours in the incubator (37° C., 5% CO2). The collagen gel was released from the Petri dish, and thereto was added a solution containing acetylsalicylic acid (its final concentration was respectively 0, 0.05, 0.5, 5, and 50 μM). The suspension was cultured in the incubator (37° C., 5% CO2) and after 24 hours the shrinking rate was evaluated.

[1] = system: human fibroblast derived from keloid; assay: Test of inhibition of collagen gel shrinking (human fibroblast derived from keloid); type: cell-based; conditions: for Shrinking rate: after 24 hours
Description: as §1

## CC(=O)Oc1ccccc1C(=O)O [Acetylsalicylic acid]
Human normal fibroblast; Table 9
  shrinking of collagen (in words): inhibited
Human normal fibroblast; acetylsalicylic acid 0.05 μM
  Shrinking rate of collagen: 23%
Human normal fibroblast; acetylsalicylic acid 0.5 μM
  Shrinking rate of collagen: 12%
Human normal fibroblast; acetylsalicylic acid 5 μM
  Shrinking rate of collagen: 10%
Human normal fibroblast; acetylsalicylic acid 50 μM
  Shrinking rate of collagen: 14%
[1]; Table 10
  shrinking of collagen (in words): inhibited
[1]; acetylsalicylic acid 0.05 μM
  Shrinking rate: 21%
[1]; acetylsalicylic acid 0.5 μM
  Shrinking rate: 19%
[1]; acetylsalicylic acid 5 μM
  Shrinking rate: 24%
[1]; acetylsalicylic acid 50 μM
  Shrinking rate: 20%
